Results as given in patent publication US12473295B2, “Substituted straight chain spiro derivatives” (Janssen Pharmaceutica NV, priority 2019, dated 2025).
Where a name gives a salt, the structure may show the parent alone.

Columns and labels:
KO-52 cells = assay: Proliferation assay (spheroid growth, 8 days), KO-52 control cell line; type: cell-based, human; conditions: Homo sapiens, […], read-out: spheroid assay_OneTime KO-52 IC50
Summary of the method: (§1)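 Cells were seeded at 200 (MOLM14, OCI-AML3) or 300 (KO-52) per well in ultra-low attachment round-bottom plates with compounds at several concentrations, 0.3% DMSO, and grown 8 days at 37° C. Spheroid confluence was imaged on day 8; IC50 came from a variable-slope fit normalized to DMSO and high-dose reference compound.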

MEIS1 mRNA = MEIS1 mRNA expression assay (Quantigene Singleplex) in MOLM14 cells; type: cell-based, human; conditions: Homo sapiens, MOLM-14, 48 h, 48 hours incubation;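 further: MEIS1 transcript levels read by probe hybridization and normalized to RPL28 mRNA, with IC50 fitted to fold changes across a rising compound concentration series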
OCI-AML3 cells = assay: Proliferation assay (spheroid growth, 8 days), OCI-AML3; type: cell-based, human; conditions: Homo sapiens, OCI-AML-3, […], OCI-AML3, 8 days
Summary of the method: as §1

MOLM14 cells = assay: Proliferation assay (spheroid growth, 8 days), MOLM14; type: cell-based, human; conditions: Homo sapiens, MOLM-14, […], MOLM14, 8 days; read-out: spheroid assay_OneTime MOLM14 IC50;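 further: spheroid size read as confluence by live-cell imaging, compounds added at a range of concentrations with 0.3% DMSO, DMSO-treated wells = 0%, highest reference dose = low control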
[1] = biological target: menin/MLL (terbium chelate-labeled menin, FITC-MBM1 peptide) (Homo sapiens (Human), UniProt O00255); assay: Menin/MLL homogenous time-resolved fluorescence (HTRF) assay; type: binding; conditions: HTRF-30 min incubation IC50, 30 min incubation;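 further: IC50 from percent inhibition of HTRF signal, normalized between wells without competitor and wells with a saturating competitor that displaces FITC-MBM1 from His-tagged menin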
Chain of menin/MLL (terbium chelate-labeled menin, FITC-MBM1 peptide) (O00255 other isoform, or with tags, fused parts or gaps): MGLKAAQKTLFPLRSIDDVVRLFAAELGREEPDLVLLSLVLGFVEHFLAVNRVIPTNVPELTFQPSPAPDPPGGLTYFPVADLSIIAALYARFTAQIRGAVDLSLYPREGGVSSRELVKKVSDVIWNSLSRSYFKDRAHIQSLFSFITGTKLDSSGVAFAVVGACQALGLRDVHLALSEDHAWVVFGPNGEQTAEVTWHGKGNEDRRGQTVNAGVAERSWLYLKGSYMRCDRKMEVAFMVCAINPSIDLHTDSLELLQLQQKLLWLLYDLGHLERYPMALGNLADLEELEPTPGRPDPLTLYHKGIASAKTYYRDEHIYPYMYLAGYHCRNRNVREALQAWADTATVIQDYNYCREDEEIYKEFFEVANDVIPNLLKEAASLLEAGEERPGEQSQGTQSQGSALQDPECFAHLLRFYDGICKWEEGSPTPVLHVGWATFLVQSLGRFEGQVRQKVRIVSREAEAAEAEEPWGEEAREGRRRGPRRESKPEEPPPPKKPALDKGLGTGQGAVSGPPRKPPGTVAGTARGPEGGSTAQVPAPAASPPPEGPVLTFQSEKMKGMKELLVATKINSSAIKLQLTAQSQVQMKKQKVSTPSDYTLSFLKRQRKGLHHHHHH

IC50 (MEIS1 mRNA)	IC50 (OCI-AML3 cells)	IC50 (MOLM14 cells)	IC50 [1]	SMILES	IC50 (KO-52 cells)
~650 nM	2150 nM	1020 nM	0.43 nM	CCN(C(=O)c1cc(F)ccc1Oc1nncnc1N1CCC2(C1)CN([C@H](CCCNC(=O)NC)C(C)C)C2)C(C)C [Compound 8, (R)-N-ethyl-5-fluoro-N-isopropyl-2-((5-(2-(2-methyl-6-(3-methylureido)hexan-3-yl)-2,6-diazaspiro[3.4]octan-6-yl)-1,2,4-triazin-6-yl)oxy)benzamide]	> 15000 nM
71 nM	460 nM	100 nM	0.25 nM	CCN(C(=O)c1cc(F)ccc1Oc1nncnc1N1CCC2(C1)CN([C@H](CCCNCC(F)F)C(C)C)C2)C(C)C [Compound 15, (R)-2-((5-(2-(6-((2,2-difluoroethyl)amino)-2-methylhexan-3-yl)-2,6-diazaspiro[3.4]octan-6-yl)-1,2,4-triazin-6-yl)oxy)-N-ethyl-5-fluoro-N-isopropylbenzamide]	3700 nM
490 nM	1340 nM	270 nM	0.28 nM	CCN(C(=O)c1cc(F)ccc1Oc1nncnc1N1CCC2(C1)CN(C(CCN)C(C)C)C2)C(C)C (stereo not shown) [Compound 26, 2-((5-(2-(1-amino-4-methylpentan-3-yl)-2,6-diazaspiro[3.4]octan-6-yl)-1,2,4-triazin-6-yl)oxy)-N-ethyl-5-fluoro-N-isopropylbenzamide]	> 15000 nM
16 nM	87 nM	20 nM	0.099 nM	CCN(C(=O)c1cc(F)ccc1Oc1nncnc1N1CCC2(C1)CN(C(CCCNCC(C)(C)OC)C(C)C)C2)C(C)C (stereo not shown) [Compound 69, N-ethyl-5-fluoro-N-isopropyl-2-((5-(2-(6-((2-methoxy-2-methylpropyl)amino)-2-methylhexan-3-yl)-2,6-diazaspiro[3.4]octan-6-yl)-1,2,4-triazin-6-yl)oxy)benzamide]	7180 nM
260 nM	1290 nM	140 nM	0.51 nM	CC(C)C(CCCN(C)C)N1CC2(CCN(c3ccnnc3Oc3ccc(F)cc3C(=O)N(C(C)C)C(C)C)C2)C1 (stereo not shown) [Compound 74, 2-((4-(2-(6-(dimethylamino)-2-methylhexan-3-yl)-2,6-diazaspiro[3.4]octan-6-yl)pyridazin-3-yl)oxy)-5-fluoro-N,N-diisopropylbenzamide]	10600 nM
16 nM	230 nM	13 nM	0.057 nM	CCN(C(=O)c1cc(F)ccc1Oc1nncnc1N1CCC2(C1)CN([C@H](CCCNCC(C)(C)OC)C(C)C)C2)C(C)C [Compound 135, (R)-N-ethyl-5-fluoro-N-isopropyl-2-((5-(2-(6-((2-methoxy-2-methylpropyl)amino)-2-methylhexan-3-yl)-2,6-diazaspiro[3.4]octan-6-yl)-1,2,4-triazin-6-yl)oxy)benzamide fumarate]	9690 nM
25 nM	160 nM	45 nM	0.18 nM	CCN(C(=O)c1cc(F)ccc1Oc1nncnc1N1CCC2(C1)CN([C@H](CCCN(C)CC(C)(C)OC)C(C)C)C2)C(C)C [Compound 137, (R)-N-ethyl-5-fluoro-N-isopropyl-2-((5-(2-(6-((2-methoxy-2-methylpropyl)(methyl)amino)-2-methylhexan-3-yl)-2,6-diazaspiro[3.4]octan-6-yl)-1,2,4-triazin-6-yl)oxy)benzamide fumarate]	7290 nM
28 nM	330 nM	110 nM	0.093 nM	CCN(C(=O)c1cc(F)ccc1Oc1nncnc1N1CCC2(C1)CN([C@H](CCCN(C)CC(C)(C)O)C(C)C)C2)C(C)C [Compound 140, (R)-N-ethyl-5-fluoro-2-((5-(2-(6-((2-hydroxy-2-methylpropyl)(methyl)amino)-2-methylhexan-3-yl)-2,6-diazaspiro[3.4]octan-6-yl)-1,2,4-triazin-6-yl)oxy)-N-isopropylbenzamide fumarate]	5750 nM
51 nM	220 nM	12 nM	0.071 nM	CCN(C(=O)c1cc(F)ccc1Oc1nncnc1N1CCC2(C1)CN([C@H](CCCN(C)CCCOC)C(C)C)C2)C(C)C [Compound 142, (R)-N-ethyl-5-fluoro-N-isopropyl-2-((5-(2-(6-((3-methoxypropyl)(methyl)amino)-2-methylhexan-3-yl)-2,6-diazaspiro[3.4]octan-6-yl)-1,2,4-triazin-6-yl)oxy)benzamide fumarate]	> 15000 nM
13 nM	160 nM	14 nM	0.26 nM	CCN(C(=O)c1cc(F)ccc1Oc1nncnc1N1CCC2(C1)CN([C@H](CCCN(C)CC(OC)OC)C(C)C)C2)C(C)C [Compound 150, (R)-2-((5-(2-(6-((2,2-dimethoxyethyl)(methyl)amino)-2-methylhexan-3-yl)-2,6-diazaspiro[3.4]octan-6-yl)-1,2,4-triazin-6-yl)oxy)-N-ethyl-5-fluoro-N-isopropylbenzamide fumarate]	8700 nM
87 nM	350 nM	37 nM	0.19 nM	CCN(C(=O)c1cc(F)ccc1Oc1nncnc1N1CCC2(C1)CN([C@H](CCCN(C)CCCC(=O)N(C)C)C(C)C)C2)C(C)C [Compound 152, (R)-2-((5-(2-(6-((4-(dimethylamino)-4-oxobutyl)(methyl)amino)-2-methylhexan-3-yl)-2,6-diazaspiro[3.4]octan-6-yl)-1,2,4-triazin-6-yl)oxy)-N-ethyl-5-fluoro-N-isopropylbenzamide fumarate]	> 15000 nM
27 nM	67 nM	22 nM	0.051 nM	CCN(C(=O)c1cc(F)ccc1Oc1nncnc1N1CCC2(C1)CN([C@H](CCCN(C)[C@H](C)COC)C(C)C)C2)C(C)C [Compound 154, N-ethyl-5-fluoro-N-isopropyl-2-((5-(2-((R)-6-(((R)-1-methoxypropan-2-yl)(methyl)amino)-2-methylhexan-3-yl)-2,6-diazaspiro[3.4]octan-6-yl)-1,2,4-triazin-6-yl)oxy)benzamide fumarate]	> 15000 nM
22 nM	83 nM	21 nM	0.12 nM	CCN(C(=O)c1cc(F)ccc1Oc1nncnc1N1CCC2(C1)CN([C@H](CCCN(C)[C@@H](C)COC)C(C)C)C2)C(C)C [Compound 157, N-ethyl-5-fluoro-N-isopropyl-2-((5-(2-((R)-6-((S)-1-methoxypropan-2-yl)(methyl)amino)-2-methylhexan-3-yl)-2,6-diazaspiro[3.4]octan-6-yl)-1,2,4-triazin-6-yl)oxy)benzamide fumarate]	13800 nM
~17 nM	12 nM	10 nM	0.1 nM	CCN(C(=O)c1cc(F)ccc1Oc1nncnc1N1CCC2(C1)CN([C@H](CCCNC(COC)COC)C(C)C)C2)C(C)C [Compound 159, (R)-2-((5-(2-(6-((1,3-dimethoxypropan-2-yl)amino)-2-methylhexan-3-yl)-2,6-diazaspiro[3.4]octan-6-yl)-1,2,4-triazin-6-yl)oxy)-N-ethyl-5-fluoro-N-isopropylbenzamide fumarate]	6300 nM
